Assay results as given in US12540129B2, “KIF18A inhibitors” (AMGEN INC., priority 2019, dated 2026).

Target: T1, Recombinant human KIF18A (1-467 His-tagged) protein (Homo sapiens, UniProt Q8NI77)
T1 construct: Recombinant human KIF18A (1-467 His-tagged) protein; His; made in house
Assay: KIF18A Enzyme Assay: microtubule-stimulated ATPase activity (ADP-Glo)
Assay type: biochemical
Details: 30 nM KIF18A, 75 μM ATP
Text: KIF18A Enzyme Assay: Microtubule-stimulated ATPase activity assay is used to measure KIF18A enzyme activity after treatment with compound. Compounds were 2-fold serially diluted in DMSO (Sigma Inc) over 22-point concentration range. Recombinant human KIF18A (1-467 His-tagged) protein was expressed using a baculovirus system and purified by affinity chromatography by Amgen Inc. Concentrations of KIF18A protein, microtubules (MT), and ATP in the reaction were optimized for standardized homogenous enzyme assay using ADP-Glorm Kinase/ATPase Assay Kit (Promega Inc). The assay measures ADP formed from the ATPase reaction. […] Read luminescence using EnVision microplate reader with ultra-luminescence module (Perkin Elmer Inc). Concentration-response curve-fitting and IC50 determination was performed using Genedata Screener Software (Standard 15.0.1, Genedata Inc) with a four-parameter logistic regression fit model.
Table A provides data for compounds exemplified in the present application and priority document thereof, as representative compounds of the present invention, as follows: chemical name (as named by either ACD software or ChemDraw (Professional 15.0)) and biological data (IC50 in μM). Ex. # refers to Example No.

T1 sequence (Q8NI77 1-467): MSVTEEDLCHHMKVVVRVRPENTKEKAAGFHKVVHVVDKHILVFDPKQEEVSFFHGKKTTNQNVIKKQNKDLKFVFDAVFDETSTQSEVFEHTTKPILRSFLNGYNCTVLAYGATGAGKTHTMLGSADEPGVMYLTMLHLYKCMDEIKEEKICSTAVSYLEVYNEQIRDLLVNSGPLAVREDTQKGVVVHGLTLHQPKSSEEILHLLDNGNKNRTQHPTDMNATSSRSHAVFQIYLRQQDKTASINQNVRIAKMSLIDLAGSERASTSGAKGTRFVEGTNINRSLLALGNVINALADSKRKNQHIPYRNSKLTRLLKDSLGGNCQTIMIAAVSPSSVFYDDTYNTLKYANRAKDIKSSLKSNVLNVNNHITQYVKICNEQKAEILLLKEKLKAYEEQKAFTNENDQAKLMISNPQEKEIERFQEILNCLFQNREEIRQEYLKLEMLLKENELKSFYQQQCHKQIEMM
T1 sequence (P02550 whole entry partner): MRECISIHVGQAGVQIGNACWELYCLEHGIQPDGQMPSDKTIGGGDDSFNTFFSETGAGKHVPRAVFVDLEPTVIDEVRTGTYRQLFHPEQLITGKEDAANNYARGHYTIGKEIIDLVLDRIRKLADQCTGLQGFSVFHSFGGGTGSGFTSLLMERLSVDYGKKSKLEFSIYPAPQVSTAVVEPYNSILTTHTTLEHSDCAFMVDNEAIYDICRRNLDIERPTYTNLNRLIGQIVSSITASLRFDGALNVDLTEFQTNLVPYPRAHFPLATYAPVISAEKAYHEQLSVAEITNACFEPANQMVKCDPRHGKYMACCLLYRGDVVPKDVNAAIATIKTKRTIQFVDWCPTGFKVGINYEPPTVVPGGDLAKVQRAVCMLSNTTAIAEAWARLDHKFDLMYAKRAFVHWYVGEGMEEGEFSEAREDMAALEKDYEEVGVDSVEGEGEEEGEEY
T1 sequence (P02554 whole entry partner): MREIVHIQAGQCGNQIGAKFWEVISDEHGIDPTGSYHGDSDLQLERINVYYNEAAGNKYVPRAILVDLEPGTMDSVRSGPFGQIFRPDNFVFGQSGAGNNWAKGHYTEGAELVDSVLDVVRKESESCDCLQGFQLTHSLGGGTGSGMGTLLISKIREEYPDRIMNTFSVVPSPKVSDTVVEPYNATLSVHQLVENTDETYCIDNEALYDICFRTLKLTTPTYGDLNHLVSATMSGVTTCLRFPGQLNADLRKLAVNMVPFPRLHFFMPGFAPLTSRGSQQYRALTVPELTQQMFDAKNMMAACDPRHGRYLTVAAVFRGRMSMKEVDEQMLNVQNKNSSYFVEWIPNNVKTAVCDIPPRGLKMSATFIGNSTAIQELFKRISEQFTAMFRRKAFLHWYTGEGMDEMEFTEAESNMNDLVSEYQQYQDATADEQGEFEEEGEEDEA

Row | Structure (SMILES) | IC50 [nM]
1 | CC(C)(C)NS(=O)(=O)c1cccc(NC(=O)c2ccc(N[C@H]3C[C@@H](O)C3)nc2N2CCC3(CC2)CC3)c1 [Example 102-29, N-(3-(N-(tert-butyl)sulfamoyl)phenyl)-6-(((1S,3S)-3-hydroxycyclobutyl)amino)-2-(6-azaspiro[2.5]octan-6-yl)nicotinamide] | 98
2 | CC(C)(O)CNc1ccc(C(=O)Nc2cccc(S(=O)(=O)C3CCCC3)c2)c(N2CCC3(CC2)CC3)n1 [Example 103, N-(3-(Cyclopentylsulfonyl)phenyl)-6-((2-hydroxy-2-methylpropyl)amino)-2-(6-azaspiro[2.5]octan-6-yl)nicotinamide] | 58
3 | O=C(Nc1cccc(S(=O)(=O)C2CCCC2)c1)c1ccc(NCCCO)nc1N1CCC2(CC1)CC2 [Example 103-2, N-(3-(cyclopentylsulfonyl)phenyl)-6-((3-hydroxypropyl)amino)-2-(6-azaspiro[2.5]octan-6-yl)nicotinamide] | 47
4 | CC(C)(C)Nc1ccc(C(=O)Nc2cccc(S(=O)(=O)C3CCCC3)c2)c(N2CCC3(CC2)CC3)n1 [Example 103-3, 6-(tert-butylamino)-N-(3-(cyclopentylsulfonyl)phenyl)-2-(6-azaspiro[2.5]octan-6-yl)nicotinamide] | 90
5 | O=C(Nc1cccc(S(=O)(=O)C2CCCC2)c1)c1ccc(NC2(CO)CCC2)nc1N1CCC2(CC1)CC2 [Example 103-5, N-(3-(cyclopentylsulfonyl)phenyl)-6-((1-(hydroxymethyl)cyclobutyl)amino)-2-(6-azaspiro[2.5]octan-6-yl)nicotinamide] | 54
6 | O=C(Nc1cccc(S(=O)(=O)C2CCCC2)c1)c1ccc(NC2(CO)COC2)nc1N1CCC2(CC1)CC2 [Example 103-6, N-(3-(cyclopentylsulfonyl)phenyl)-6-((3-(hydroxymethyl)oxetan-3-yl)amino)-2-(6-azaspiro[2.5]octan-6-yl)nicotinamide] | 39
7 | O=C(Nc1cccc(S(=O)(=O)C2CCCC2)c1)c1ccc(NCC2(O)CC2)nc1N1CCC2(CC1)CC2 [Example 103-8, N-(3-(cyclopentylsulfonyl)phenyl)-6-(((1-hydroxycyclopropyl)methyl)amino)-2-(6-azaspiro[2.5]octan-6-yl)nicotinamide] | 42
8 | C[C@@H](CO)Nc1ccc(C(=O)Nc2cccc(S(=O)(=O)C3CCCC3)c2)c(N2CCC3(CC2)CC3)n1 [Example 103-9, (S)-N-(3-(cyclopentylsulfonyl)phenyl)-6-((1-hydroxypropan-2-yl)amino)-2-(6-azaspiro[2.5]octan-6-yl)nicotinamide] | 42
9 | C[C@H](CO)Nc1ccc(C(=O)Nc2cccc(S(=O)(=O)C3CCCC3)c2)c(N2CCC3(CC2)CC3)n1 [Example 103-10, (R)-N-(3-(cyclopentylsulfonyl)phenyl)-6-((1-hydroxypropan-2-yl)amino)-2-(6-azaspiro[2.5]octan-6-yl)nicotinamide] | 42
10 | C[C@@H](O)CNc1ccc(C(=O)Nc2cccc(S(=O)(=O)C3CCCC3)c2)c(N2CCC3(CC2)CC3)n1 [Example 103-11, (R)-N-(3-(cyclopentylsulfonyl)phenyl)-6-((2-hydroxypropyl)amino)-2-(6-azaspiro[2.5]octan-6-yl)nicotinamide] | 76
11 | C[C@H](O)CNc1ccc(C(=O)Nc2cccc(S(=O)(=O)C3CCCC3)c2)c(N2CCC3(CC2)CC3)n1 [Example 103-12, (S)-N-(3-(cyclopentylsulfonyl)phenyl)-6-((2-hydroxypropyl)amino)-2-(6-azaspiro[2.5]octan-6-yl)nicotinamide] | 65
12 | O=C(Nc1cccc(S(=O)(=O)C2CCCC2)c1)c1ccc(N[C@@H]2CC[C@H]2O)nc1N1CCC2(CC1)CC2 [Example 103-14, N-(3-(cyclopentylsulfonyl)phenyl)-6-(((1R,2R)-2-hydroxycyclobutyl)amino)-2-(6-azaspiro[2.5]octan-6-yl)nicotinamide] | 161
13 | O=C(Nc1cccc(S(=O)(=O)C2CCCC2)c1)c1ccc(N[C@@H]2CCOC2)nc1N1CCC2(CC1)CC2 [Example 103-15, (R)-N-(3-(cyclopentylsulfonyl)phenyl)-2-(6-azaspiro[2.5]octan-6-yl)-6-((tetrahydrofuran-3-yl)amino)nicotinamide] | 51
14 | O=C(Nc1cccc(S(=O)(=O)C2CCCC2)c1)c1ccc(N[C@H]2CCOC2)nc1N1CCC2(CC1)CC2 [Example 103-16, (S)-N-(3-(cyclopentylsulfonyl)phenyl)-2-(6-azaspiro[2.5]octan-6-yl)-6-((tetrahydrofuran-3-yl)amino)nicotinamide] | 115
15 | O=C(Nc1cccc(S(=O)(=O)C2CCCC2)c1)c1ccc(NCC2(O)CCC2)nc1N1CCC2(CC1)CC2 [Example 103-17, N-(3-(cyclopentylsulfonyl)phenyl)-6-(((1-hydroxycyclobutyl)methyl)amino)-2-(6-azaspiro[2.5]octan-6-yl)nicotinamide] | 168
16 | O=C(Nc1cccc(S(=O)(=O)C2CCCC2)c1)c1ccc(N2CC(O)C2)nc1N1CCC2(CC1)CC2 [Example 103-21, N-(3-(cyclopentylsulfonyl)phenyl)-6-(3-hydroxyazetidin-1-yl)-2-(6-azaspiro[2.5]octan-6-yl)nicotinamide] | 118
17 | CCNc1ccc(C(=O)Nc2cccc(S(=O)(=O)C3CCCC3)c2)c(N2CCC3(CCC3)CC2)n1 [Example 103-23, N-(3-(cyclopentylsulfonyl)phenyl)-6-(ethylamino)-2-(7-azaspiro[3.5]nonan-7-yl)nicotinamide] | 97

The remaining compounds from weak to strong by IC50, led by results:

Row | IC50 [nM] | Structure (SMILES)
18 | 678 | CN(C)CCNc1ccc(C(=O)Nc2cccc(S(=O)(=O)C3CCCC3)c2)c(N2CCC3(CC2)CC3)n1 [Example 103-22, N-(3-(cyclopentylsulfonyl)phenyl)-6-((2-(dimethylamino)ethyl)amino)-2-(6-azaspiro[2.5]octan-6-yl)nicotinamide]
19 | 317 | CC(C)(C)NS(=O)(=O)c1cccc(NC(=O)c2ccc(NCc3ccccc3)nc2N2CCC3(CC2)CC3)c1 [Example 102-31, 6-(benzylamino)-N-(3-(N-(tert-butyl)sulfamoyl)phenyl)-2-(6-azaspiro[2.5]octan-6-yl)nicotinamide]
20 | 141 | O=C(Nc1cccc(S(=O)(=O)C2CCCC2)c1)c1ccc(N2CC(CO)C2)nc1N1CCC2(CC1)CC2 [Example 103-20, N-(3-(cyclopentylsulfonyl)phenyl)-6-(3-(hydroxymethyl)azetidin-1-yl)-2-(6-azaspiro[2.5]octan-6-yl)nicotinamide]
21 | 109 | CC(C)(O)C(C)(C)Nc1ccc(C(=O)Nc2cccc(S(=O)(=O)C3CCCC3)c2)c(N2CCC3(CC2)CC3)n1 [Example 103-18, N-(3-(cyclopentylsulfonyl)phenyl)-6-((3-hydroxy-2,3-dimethylbutan-2-yl)amino)-2-(6-azaspiro[2.5]octan-6-yl)nicotinamide]
22 | 81 | CC(C)(C)NS(=O)(=O)c1cccc(NC(=O)c2ccc(NCCCO)nc2N2CCC3(CC2)CC3)c1 [Example 102-30, N-(3-(N-(tert-butyl)sulfamoyl)phenyl)-6-((3-hydroxypropyl)amino)-2-(6-azaspiro[2.5]octan-6-yl)nicotinamide]
23 | 80 | CC(C)(C)NS(=O)(=O)c1cccc(NC(=O)c2ccc(NC3(CO)COC3)nc2N2CCC3(CC2)CC3)c1 [Example 102-27, N-(3-(N-(tert-butyl)sulfamoyl)phenyl)-6-((3-(hydroxymethyl)oxetan-3-yl)amino)-2-(6-azaspiro[2.5]octan-6-yl)nicotinamide]
24 | 71 | CC(C)(C)NS(=O)(=O)c1cccc(NC(=O)c2ccc(NC3(CO)CCC3)nc2N2CCC3(CC2)CC3)c1 [Example 102-28, N-(3-(N-(tert-butyl)sulfamoyl)phenyl)-6-((1-(hydroxymethyl)cyclobutyl)amino)-2-(6-azaspiro[2.5]octan-6-yl)nicotinamide]
25 | 60 | COCCNc1ccc(C(=O)Nc2cccc(S(=O)(=O)C3CCCC3)c2)c(N2CCC3(CC2)CC3)n1 [Example 103-1, N-(3-(cyclopentylsulfonyl)phenyl)-6-((2-methoxyethyl)amino)-2-(6-azaspiro[2.5]octan-6-yl)nicotinamide]
26 | 55 | O=C(Nc1cccc(S(=O)(=O)C2CCCC2)c1)c1ccc(NC2(CCO)CC2)nc1N1CCC2(CC1)CC2 [Example 103-19, N-(3-(cyclopentylsulfonyl)phenyl)-6-((1-(2-hydroxyethyl)cyclopropyl)amino)-2-(6-azaspiro[2.5]octan-6-yl)nicotinamide]
27 | 47 | CC(C)(CCO)Nc1ccc(C(=O)Nc2cccc(S(=O)(=O)C3CCCC3)c2)c(N2CCC3(CC2)CC3)n1 [Example 103-7, N-(3-(cyclopentylsulfonyl)phenyl)-6-((4-hydroxy-2-methylbutan-2-yl)amino)-2-(6-azaspiro[2.5]octan-6-yl)nicotinamide]
28 | 43 | O=C(Nc1cccc(S(=O)(=O)C2CCCC2)c1)c1ccc(NC2COC2)nc1N1CCC2(CC1)CC2 [Example 103-13, N-(3-(cyclopentylsulfonyl)phenyl)-6-(oxctan-3-ylamino)-2-(6-azaspiro[2.5]octan-6-yl)nicotinamide]
29 | 39 | O=C(Nc1cccc(S(=O)(=O)C2CCCC2)c1)c1ccc(NC2(CO)CC2)nc1N1CCC2(CC1)CC2 [Example 103-4, N-(3-(cyclopentylsulfonyl)phenyl)-6-((1-(hydroxymethyl)cyclopropyl)amino)-2-(6-azaspiro[2.5]octan-6-yl)nicotinamide]
